Assay results: PubChem BioAssay AID256 (DTP/NCI, 2004)
Where “and” joins values, the source holds several entries; their conditions need not be identical. Identical values can stand only once. Toxic doses and inconclusive results are not listed. Rule for the calls: active = survival T/C of 150% or more; inactive = T/C below 125% in these data.

Test system: CD2F1 mice, L1210 leukemia ip, survival T/C
Experiment: NCI In Vivo Anticancer Drug Screen. Data for tumor model L1210 Leukemia (intraperitoneal) in CD2F1 (CDF1) mice
Details: endpoint: mean survival time, higher = longer survival
Description: The antitumor activity of compounds was measured in mice bearing transplantable tumors. Survival or tumor size were measured and the results are expressed as the measurement made in the treated group (T) divided by the measurement made in the vehicle treated control group (C). The tumor model used in this assay is L1210 Leukemia (intraperitoneal) in CD2F1 (CDF1) mice

[1] = dose: 100.0 mg/kg/injection, schedule: Q01DX001 (ip), vehicle: saline
[2] = dose: 200.0 mg/kg/injection, schedule: Q01DX001 (ip), vehicle: saline
[3] = dose: 200.0 mg/kg/injection, schedule: Q04DX003 (ip), vehicle: saline
[4] = dose: 400.0 mg/kg/injection, schedule: Q04DX003 (ip), vehicle: saline
[5] = dose: 100.0 mg/kg/injection, schedule: Q01DX001 (ip), vehicle: saline with Tween-80
[6] = dose: 100.0 mg/kg/injection, schedule: Q01DX009 (ip), vehicle: saline with Tween-80
[7] = dose: 200.0 mg/kg/injection, schedule: Q01DX001 (ip), vehicle: saline with Tween-80
[8] = dose: 200.0 mg/kg/injection, schedule: Q01DX009 (ip), vehicle: saline with Tween-80
[9] = dose: 400.0 mg/kg/injection, schedule: Q01DX001 (ip), vehicle: saline with Tween-80
[10] = dose: 400.0 mg/kg/injection, schedule: Q01DX009 (ip), vehicle: saline with Tween-80
[11] = dose: 100.0 mg/kg/injection, schedule: Q04DX002 (ip), vehicle: saline with Tween-80
[12] = dose: 200.0 mg/kg/injection, schedule: Q04DX002 (ip), vehicle: saline with Tween-80
[13] = dose: 400.0 mg/kg/injection, schedule: Q04DX002 (ip), vehicle: saline with Tween-80
[14] = dose: 400.0 mg/kg/injection, schedule: Q01DX001 (ip), vehicle: saline
[15] = dose: 100.0 mg/kg/injection, schedule: Q04DX003 (ip), vehicle: saline with Tween-80
[16] = dose: 200.0 mg/kg/injection, schedule: Q04DX003 (ip), vehicle: saline with Tween-80
[17] = dose: 400.0 mg/kg/injection, schedule: Q04DX003 (ip), vehicle: saline with Tween-80

Measured: T/C

CCCCCC(=O)NNc1nc(N)nc2nonc12
inactive: dose: 6.25 mg/kg/injection, schedule: Q01DX005 (ip), vehicle: other 109 % of control | dose: 12.5 mg/kg/injection, schedule: Q01DX005 (ip), vehicle: other 97 % of control | dose: 25.0 mg/kg/injection, schedule: Q01DX005 (ip), vehicle: other 105 % of control | dose: 50.0 mg/kg/injection, schedule: Q01DX005 (ip), vehicle: other 97 % of control | dose: 100.0 mg/kg/injection, schedule: Q01DX005 (ip), vehicle: other 100 % of control

CCOC(=O)CCC(NC(=O)N(CCCl)CCCl)C(=O)OCC (stereo not drawn)
inactive: dose: 25.0 mg/kg/injection, schedule: Q01DX001 (ip), vehicle: carboxymethylcellulose (CMC) 97 % of control | dose: 50.0 mg/kg/injection, schedule: Q01DX001 (ip), vehicle: carboxymethylcellulose (CMC) 106 % of control | [1] 103 % of control | [2] 114 % of control | dose: 900.0 mg/kg/injection, schedule: Q01DX001 (ip), vehicle: carboxymethylcellulose (CMC) 102 % of control

CC(C)CCNc1ncnc2[nH]ncc12
inactive: dose: 12.5 mg/kg/injection, schedule: Q04DX003 (ip), vehicle: Klucel (hydroxypropylcellulose) (HPC) 106 % of control | dose: 25.0 mg/kg/injection, schedule: Q04DX003 (ip), vehicle: Klucel (hydroxypropylcellulose) (HPC) 106 % of control | dose: 50.0 mg/kg/injection, schedule: Q04DX003 (ip), vehicle: Klucel (hydroxypropylcellulose) (HPC) 100 % of control

N#CCCN1CCOCC1
inactive: dose: 100.0 mg/kg/injection, schedule: Q01DX009 (ip), vehicle: saline 95 % of control | dose: 100.0 mg/kg/injection, schedule: Q04DX003 (ip), vehicle: saline 92 % of control | dose: 200.0 mg/kg/injection, schedule: Q01DX009 (ip), vehicle: saline 93 % of control | [3] 103 % of control | dose: 400.0 mg/kg/injection, schedule: Q01DX009 (ip), vehicle: saline 101 % of control | [4] 103 % of control

Cc1ccc(C)c(NC(=O)Oc2ccc(F)cc2)c1
inactive: [5] 96 % of control | [6] 94 % of control and 97 % of control | [7] 86 % of control | [8] 101 % of control | [9] 92 % of control | [10] 93 % of control and 103 % of control

CC1=CCC(=O)O1
inactive: [11] 102 % of control | [12] 98 % of control | [13] 102 % of control

S=[As]c1ccccc1 (stereo not drawn)
inactive: [1] 100 % of control | [2] 97 % of control | [14] 107 % of control

NNC(=O)c1nc(N)n[nH]1
inactive: [15] 101 % of control | [16] 103 % of control | [17] 104 % of control

CCCCCCCCCCCCN(CN1C(=O)c2ccccc2C1=O)CN1C(=O)c2ccccc2C1=O
inactive: [6] 92 % of control | [10] 86 % of control

C=C1C(=O)OC2C1CCC(C)C1(O)C=CC(=O)C21C (stereo not drawn)
inactive: dose: 50.0 mg/kg/injection, schedule: Q01DX001 (ip), vehicle: saline 107 % of control | [1] 97 % of control

COc1ccccc1NC(=S)NCCO
inactive: [6] 97 % of control | [8] 103 % of control | [10] 98 % of control

N/C(CCSc1ccccc1N=Cc1ccccc1O)=N/O
inactive: dose: 3.13 mg/kg/injection, schedule: Q01DX009 (ip), vehicle: olive oil, sesame oil, peanut oil 95 % of control | dose: 6.25 mg/kg/injection, schedule: Q01DX009 (ip), vehicle: olive oil, sesame oil, peanut oil 94 % of control | dose: 12.5 mg/kg/injection, schedule: Q01DX009 (ip), vehicle: olive oil, sesame oil, peanut oil 98 % of control | dose: 25.0 mg/kg/injection, schedule: Q01DX009 (ip), vehicle: olive oil, sesame oil, peanut oil 100 % of control | dose: 50.0 mg/kg/injection, schedule: Q01DX009 (ip), vehicle: olive oil, sesame oil, peanut oil 100 % of control

CC(=O)O[C@H]1CC[C@H]2[C@@H]3CCC4=C(Cl)C(=O)CC[C@]4(C)[C@H]3CC[C@]12C
inactive: [6] 96 % of control | [15] 97 % of control | [8] 94 % of control | [16] 96 % of control | [10] 94 % of control | [17] 103 % of control

C/C(Cl)=C\CSc1ccccc1
inactive: [1] 100 % of control | [2] 100 % of control | [14] 101 % of control

[O-][n+]1onc2ccc(Cl)cc21
inactive: dose: 100.0 mg/kg/injection, schedule: Q04DX003 (ip), vehicle: Klucel (hydroxypropylcellulose) (HPC) 102 % of control

CC1=Nc2ccccc2N2C1=CC1=C(C(=O)c3cc4ccccc4cc3C1=O)C2C (stereo not drawn)
inactive: dose: 12.5 mg/kg/injection, schedule: Q04DX003 (ip), vehicle: saline with Tween-80 101 % of control | dose: 25.0 mg/kg/injection, schedule: Q04DX003 (ip), vehicle: saline with Tween-80 122 % of control | dose: 50.0 mg/kg/injection, schedule: Q04DX003 (ip), vehicle: saline with Tween-80 101 % of control | [3] 94 % of control | [4] 90 % of control

O=C(O)C12CC3CC(CC(C3)C1)C2
inactive: [15] 103 % of control | [16] 105 % of control | [17] 102 % of control

CCN(CC)C(=O)c1cccc(COc2ccc(N3C(N)=NC(N)=NC3(C)C)cc2Cl)c1
inactive: dose: 0.2 mg/kg/injection, schedule: Q01DX009 (ip), vehicle: saline 98 % of control | dose: 0.4 mg/kg/injection, schedule: Q01DX009 (ip), vehicle: saline 98 % of control | dose: 0.8 mg/kg/injection, schedule: Q01DX009 (ip), vehicle: saline 100 % of control | dose: 1.56 mg/kg/injection, schedule: Q01DX009 (ip), vehicle: saline 96 % of control | dose: 3.13 mg/kg/injection, schedule: Q01DX009 (ip), vehicle: saline 100 % of control | dose: 6.25 mg/kg/injection, schedule: Q01DX009 (ip), vehicle: saline 96 % of control | dose: 12.5 mg/kg/injection, schedule: Q01DX009 (ip), vehicle: saline 100 % of control

Cc1cc(C(=O)O)c(CC(=O)O)o1
inactive: [11] 104 % of control | [12] 104 % of control | [13] 86 % of control

CC(=O)c1cno[n+]1[O-]
inactive: dose: 5.0 mg/kg/injection, schedule: Q01DX009 (ip), vehicle: saline with Tween-80 97 % of control | dose: 10.0 mg/kg/injection, schedule: Q01DX009 (ip), vehicle: saline with Tween-80 113 % of control

COC(=O)C12C=CC(C1)n1c(=O)n(-c3ccccc3)c(=O)n12 (stereo not drawn)
inactive: [6] 98 % of control | [8] 104 % of control | [10] 96 % of control

[Co].[NH-]CC[NH-].[NH-]CC[NH-].[NH-]CC[S-]
inactive: dose: 100.0 mg/kg/injection, schedule: Q04DX002 (ip), vehicle: saline 112 % of control | dose: 200.0 mg/kg/injection, schedule: Q04DX002 (ip), vehicle: saline 101 % of control | dose: 400.0 mg/kg/injection, schedule: Q04DX002 (ip), vehicle: saline 104 % of control

Nc1ncc(CCS)c(=O)[nH]1
inactive: [1] 97 % of control | [2] 98 % of control

c1ccc(C2CC2c2ccccc2)cc1 (stereo not drawn)
inactive: dose: 75.0 mg/kg/injection, schedule: Q01DX001 (ip), vehicle: saline 100 % of control | dose: 150.0 mg/kg/injection, schedule: Q01DX001 (ip), vehicle: saline 96 % of control | dose: 300.0 mg/kg/injection, schedule: Q01DX001 (ip), vehicle: saline 98 % of control

O=C(O)CCC1CC(=O)OC12CCCCC2 (stereo not drawn)
inactive: [5] 96 % of control | [7] 96 % of control | [9] 91 % of control

CC(NC(=O)C(C)(Br)C1CCCCC1)c1ccccc1 (stereo not drawn)
inactive: [5] 87 % of control | [7] 91 % of control

COCC(OC)C(OC)C(OC)C(C=O)OC (stereo not drawn)
inactive: dose: 50.0 mg/kg/injection, schedule: Q01DX001 (ip), vehicle: Klucel (hydroxypropylcellulose) (HPC) 99 % of control | dose: 100.0 mg/kg/injection, schedule: Q01DX001 (ip), vehicle: Klucel (hydroxypropylcellulose) (HPC) 99 % of control | dose: 200.0 mg/kg/injection, schedule: Q01DX001 (ip), vehicle: Klucel (hydroxypropylcellulose) (HPC) 105 % of control

CC(CP(=O)(c1ccccc1)c1ccccc1)C(=O)O (stereo not drawn)
inactive: [15] 92 % of control | [16] 95 % of control | [17] 101 % of control
